# Measured values as given in publication PMC7413254 (Nature Communications, 2020).
# Read-outs that look alike come from different tables or passages of the source.
# What was measured:
# [1] = target: T1, PfCRT^Dd2 (Plasmodium falciparum, UniProt Q9N623, A220S/I356T/K76T/M74I/N326S/N75E/Q271E/R371I); assay: [3H]CQ uptake into Xenopus oocytes, cis-inhibition by unlabelled solute; assay type: cell-based; details: PfCRTDd2 oocytes, background [3H]CQ accumulation subtracted, normalised to oocyte type control
# T1 sequence (Q9N623 whole entry A220S/I356T/K76T/M74I/N326S/N75E/Q271E/R371I, canonical isoform): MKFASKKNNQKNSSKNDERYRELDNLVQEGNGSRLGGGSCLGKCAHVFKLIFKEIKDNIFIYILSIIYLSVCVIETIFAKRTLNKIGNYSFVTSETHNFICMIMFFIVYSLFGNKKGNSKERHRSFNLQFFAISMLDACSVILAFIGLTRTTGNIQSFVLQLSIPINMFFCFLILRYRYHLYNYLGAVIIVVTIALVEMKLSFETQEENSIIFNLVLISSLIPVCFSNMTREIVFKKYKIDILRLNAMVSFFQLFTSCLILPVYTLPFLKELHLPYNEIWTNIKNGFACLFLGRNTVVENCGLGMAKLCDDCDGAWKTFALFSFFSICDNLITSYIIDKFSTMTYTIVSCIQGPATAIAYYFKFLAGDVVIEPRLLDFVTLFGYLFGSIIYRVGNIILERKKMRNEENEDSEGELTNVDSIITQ
# Procedure, shortened: (§1)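 Oocytes expressing PfCRT isoforms, or non-expressing controls, were incubated 1.5 h at 27.5 °C in ND96 buffer pH 5.5 (96 mM NaCl, 2 mM KCl, 1 mM MgCl2, 1.8 mM CaCl2, 10 mM MES, 10 mM Tris-base), measuring uptake from acidic medium into cytosol. Oocytes were washed ice-cold, SDS-lysed and counted by scintillation.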
# [2] = target: T2, PfCRT^Ecu1110 (Plasmodium falciparum, UniProt Q9N623, A220S/I356L/K76T/N326D); assay: as above; assay type: cell-based; details: for Uptake of [3H]CQ (% PfCRTEcu1110 control), cis-inhibition / PfCRT-mediated [3H]CQ transport, cis-inhibition (% PfCRTEcu1110 control): PfCRTEcu1110 oocytes; for Uptake of [3H]CQ (% PfCRTEcu1110 control), cis-inhibition: total [3H]CQ transport, normalised to the oocyte type control; for PfCRT-mediated [3H]CQ transport, cis-inhibition (% PfCRTEcu1110 control): background [3H]CQ accumulation subtracted, normalised to oocyte type control; for [3H]CQ transport (% PfCRTEcu1110 control), cis-inhibition, PfCRTEcu1110: PfCRT-mediated component (background subtracted), sheet title says normalised to PfCRTDd2 control, mean ± SEM, SEM
# T2 sequence (Q9N623 whole entry A220S/I356L/K76T/N326D): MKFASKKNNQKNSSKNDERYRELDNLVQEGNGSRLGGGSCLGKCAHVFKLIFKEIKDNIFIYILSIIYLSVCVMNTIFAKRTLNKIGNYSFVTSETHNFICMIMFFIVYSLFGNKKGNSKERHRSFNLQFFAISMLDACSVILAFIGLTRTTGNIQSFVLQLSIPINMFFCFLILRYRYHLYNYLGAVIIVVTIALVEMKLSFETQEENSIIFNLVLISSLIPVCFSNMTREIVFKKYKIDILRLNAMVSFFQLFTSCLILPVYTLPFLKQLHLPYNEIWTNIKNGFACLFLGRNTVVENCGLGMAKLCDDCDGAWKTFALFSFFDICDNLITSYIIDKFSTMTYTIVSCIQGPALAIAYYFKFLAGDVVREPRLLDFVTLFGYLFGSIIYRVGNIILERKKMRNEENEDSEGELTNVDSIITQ
# Procedure, shortened: as §1
# [3] = system: PfCRT; assay: Potential co-substrates tested for influx of VF-6 via PfCRT into the oocyte; assay type: cell-based, Plasmodium falciparum; design: key: X: Compounds that have been tested as potential co-substrates but are not required for influx of VF-6 via PfCRT into the oocyte
# [4] = target: T3, PfCRT^3D7 (Plasmodium falciparum, UniProt Q8IBZ9); assay: cell-based; assay type: cell-based; details: PfCRT3D7 oocytes, total [3H]CQ transport, normalised to the oocyte type control
# T3 sequence (Q8IBZ9 59-398): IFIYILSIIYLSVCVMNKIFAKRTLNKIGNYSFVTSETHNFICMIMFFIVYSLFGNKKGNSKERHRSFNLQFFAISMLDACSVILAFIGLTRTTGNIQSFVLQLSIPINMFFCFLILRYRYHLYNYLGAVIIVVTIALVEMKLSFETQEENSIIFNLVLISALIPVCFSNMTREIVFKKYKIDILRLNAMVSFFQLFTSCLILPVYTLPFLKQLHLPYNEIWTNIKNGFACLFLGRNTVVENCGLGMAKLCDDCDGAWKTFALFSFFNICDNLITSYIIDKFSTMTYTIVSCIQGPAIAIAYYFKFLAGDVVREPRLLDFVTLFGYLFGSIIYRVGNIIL
# Procedure, shortened: as §1
# [5] = system: PfCRT; assay: Test of solutes as potential co-substrates for influx of VF-6 via PfCRT into the oocyte; assay type: cell-based, Plasmodium falciparum; design: key: X: Compounds that have been tested as potential co-substrates but are not required for influx of VF-6 via PfCRT into the oocyte; details: X = tested
# [6] = system: non-expressing oocytes; assay type: cell-based, Xenopus laevis; details: non-expressing oocytes, total [3H]CQ transport, normalised to the oocyte type control
# Procedure, shortened: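 Oocytes (ten per treatment, ≥4 independent frogs/days) were preloaded by injecting VF-6 in 25 nL ND96 at pH 5.0, 5.5, 6.0 or 7.0, or Na^+-free choline buffer, then uptake run 1.5 h, 27.5 °C, ND96 pH 5.5 by default. Internal concentrations assumed ~400 nL oocyte volume.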
# [7] = system: non-expressing oocytes; assay: cells; assay type: cell-based, Xenopus laevis; details: non-expressing oocytes, total [3H]CQ transport, normalised to the oocyte type control
# Procedure, shortened: as §1
# [8] = target: T1, PfCRT^Dd2; assay: cell-based; assay type: cell-based; details: for PfCRT-mediated [3H]CQ transport, trans-stimulation (% PfCRTDd2 control): normalised to oocyte type control; for [3H]CQ transport (% PfCRTDd2 control), trans-stimulation, PfCRTDd2: PfCRT-mediated component (background subtracted), mean ± SEM, SEM
# Procedure, shortened: (§2)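 Transport measured in Xenopus oocytes expressing the transporters, 1.5 h at 27.5 °C in ND96 pH 5.5 unless noted. For trans-stimulation, VF-6 injected in 25 nL ND96 at pH 5.0–7.0 or Na^+-free (choline) buffer; intracellular levels based on ~400 nL oocyte volume. Ten oocytes per treatment, ≥4 experiments.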
# [9] = target: T3, PfCRT^3D7; assay: cell-based; assay type: cell-based; details: PfCRT3D7 oocytes; for Uptake of [3H]CQ (% PfCRT3D7 control), trans-stimulation: total [3H]CQ transport, normalised to the oocyte type control; for PfCRT-mediated [3H]CQ transport, trans-stimulation (% PfCRT3D7 control): normalised to oocyte type control
# Procedure, shortened: as §2
# [10] = target: T4, PfNT1 (Plasmodium falciparum, UniProt Q8IDM6); assay: cell-based; assay type: cell-based; details: PfNT1 oocytes, total [3H]CQ transport, normalised to the oocyte type control
# T4 construct: expressed in transfected cells; host or cells: Xenopus laevis oocytes (stage V-VI), cRNA-injected
# T4 sequence (Q8IDM6 whole entry): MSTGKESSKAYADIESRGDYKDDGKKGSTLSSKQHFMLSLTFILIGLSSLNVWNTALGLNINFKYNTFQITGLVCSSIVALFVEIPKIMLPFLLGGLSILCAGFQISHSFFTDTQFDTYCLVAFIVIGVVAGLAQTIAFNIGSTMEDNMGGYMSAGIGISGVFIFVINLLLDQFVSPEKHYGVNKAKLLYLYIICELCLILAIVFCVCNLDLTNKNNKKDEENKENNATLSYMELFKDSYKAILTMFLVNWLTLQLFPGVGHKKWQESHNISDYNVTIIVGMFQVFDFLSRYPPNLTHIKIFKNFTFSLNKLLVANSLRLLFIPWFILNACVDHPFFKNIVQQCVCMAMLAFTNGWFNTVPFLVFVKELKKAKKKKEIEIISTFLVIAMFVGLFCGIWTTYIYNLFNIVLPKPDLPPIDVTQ
# Procedure, shortened: as §2
# [11] = target: T2, PfCRT^Ecu1110; assay: cell-based; assay type: cell-based; details: for Uptake of [3H]CQ (% PfCRTEcu1110 control), trans-stimulation / PfCRT-mediated [3H]CQ transport, trans-stimulation (% PfCRTEcu1110 control): PfCRTEcu1110 oocytes; for Uptake of [3H]CQ (% PfCRTEcu1110 control), trans-stimulation: total [3H]CQ transport, normalised to the oocyte type control; for PfCRT-mediated [3H]CQ transport, trans-stimulation (% PfCRTEcu1110 control): normalised to oocyte type control; for [3H]CQ transport (% PfCRTDd2 control), trans-stimulation, PfCRTEcu1110: PfCRT-mediated component (background subtracted), sheet title says normalised to PfCRTDd2 control, mean ± SEM, SEM
# Procedure, shortened: as §2
# [12] = [test solute]i = 45 mM (30 mM for some solutes due to solubility)
# [13] = [test solute]i = 5 mM (injected)
# [14] = [test solute]i = 5 mM (intracellular)
# [15] = [test solute]i = 45 mM (intracellular; 30 mM for some solutes due to solubility)
substance,measurement,setting,value
PVNF [PF-4],"PfCRT-mediated [3H]CQ transport, cis-inhibition (% PfCRTDd2 control)",[1]; [test solute] = 0.5 mM,60 ± 3.3 % PfCRTDd2 control
same,"PfCRT-mediated [3H]CQ transport, cis-inhibition (% PfCRTDd2 control)",[1]; [test solute] = 1 mM,51 ± 0.3 % PfCRTDd2 control
same,"PfCRT-mediated [3H]CQ transport, cis-inhibition (% PfCRTDd2 control)",[1]; [test solute] = 2 mM,39 ± 2.1 % PfCRTDd2 control
same,"Uptake of [3H]CQ (% PfCRTEcu1110 control), cis-inhibition",[2]; [test solute] = 0.5 mM,65 ± 4.3 % PfCRTEcu1110 control
same,"Uptake of [3H]CQ (% PfCRTEcu1110 control), cis-inhibition",[2]; [test solute] = 1 mM,59 ± 3.3 % PfCRTEcu1110 control
same,"Uptake of [3H]CQ (% PfCRTEcu1110 control), cis-inhibition",[2]; [test solute] = 2 mM,41 ± 2.4 % PfCRTEcu1110 control
same,"PfCRT-mediated [3H]CQ transport, cis-inhibition (% PfCRTEcu1110 control)",[2]; [test solute] = 0.5 mM,61 ± 2.6 % PfCRTEcu1110 control
same,"PfCRT-mediated [3H]CQ transport, cis-inhibition (% PfCRTEcu1110 control)",[2]; [test solute] = 1 mM,51 ± 4.2 % PfCRTEcu1110 control
same,"PfCRT-mediated [3H]CQ transport, cis-inhibition (% PfCRTEcu1110 control)",[2]; [test solute] = 2 mM,37 ± 2.9 % PfCRTEcu1110 control
same,"[3H]CQ transport (% PfCRTEcu1110 control), cis-inhibition, PfCRTEcu1110",[2]; [test solute] = 1 mM,16 ± 0.2 % PfCRTEcu1110 control
same,"[3H]CQ transport (% PfCRTEcu1110 control), cis-inhibition, PfCRTEcu1110",[2]; [test solute] = 2 mM,12 ± 0.3 % PfCRTEcu1110 control
same,Tested as potential co-substrate but not required for influx of VF-6 via PfCRT into the oocyte,[3],X
same,"Uptake of [3H]CQ (% PfCRT3D7 control), cis-inhibition",[4]; [test solute] = 0.5 mM,99 ± 4.7 % PfCRT3D7 control
same,"Uptake of [3H]CQ (% PfCRT3D7 control), cis-inhibition",[4]; [test solute] = 1 mM,100 ± 5.6 % PfCRT3D7 control
same,"Uptake of [3H]CQ (% PfCRT3D7 control), cis-inhibition",[4]; [test solute] = 2 mM,101 ± 5.3 % PfCRT3D7 control
same,Tested as potential co-substrate but not required for influx of VF-6 via PfCRT into the oocyte,[5],X
same,"Uptake of [3H]CQ (% non-expressing oocyte control), trans-stimulation",[6]; [test solute]i = 5 mM,99 ± 2.7 % non-expressing oocyte control
same,"Uptake of [3H]CQ (% non-expressing oocyte control), trans-stimulation",[6]; [12],99 ± 3.4 % non-expressing oocyte control
same,"Uptake of [3H]CQ (% non-expressing oocyte control), cis-inhibition",[7]; [test solute] = 0.5 mM,98 ± 4.8 % non-expressing oocyte control
same,"Uptake of [3H]CQ (% non-expressing oocyte control), cis-inhibition",[7]; [test solute] = 1 mM,99 ± 2.6 % non-expressing oocyte control
same,"Uptake of [3H]CQ (% non-expressing oocyte control), cis-inhibition",[7]; [test solute] = 2 mM,98 ± 3.6 % non-expressing oocyte control
same,"Uptake of [3H]CQ (% PfCRTDd2 control), trans-stimulation","[8]; PfCRTDd2 oocytes, [test solute]i = 45 mM (30 mM for some solutes due to solubility), total [3H]CQ transport, normalised to the oocyte type control",115 ± 2.7 % PfCRTDd2 control
same,"PfCRT-mediated [3H]CQ transport, trans-stimulation (% PfCRTDd2 control)","[8]; [test solute]i = 5 mM (intracellular), PfCRTDd2 oocytes",99 ± 1.9 % PfCRTDd2 control
same,"PfCRT-mediated [3H]CQ transport, trans-stimulation (% PfCRTDd2 control)","[8]; [test solute]i = 45 mM (intracellular; 30 mM for some solutes due to solubility), PfCRTDd2 oocytes",112 ± 0.9 % PfCRTDd2 control
same,"[3H]CQ transport (% PfCRTDd2 control), trans-stimulation, PfCRTDd2",[8]; [13],99 ± 1.9 % PfCRTDd2 control
same,"[3H]CQ transport (% PfCRTDd2 control), trans-stimulation, PfCRTDd2",[8]; [12],112 ± 0.9 % PfCRTDd2 control
same,"Uptake of [3H]CQ (% PfCRT3D7 control), trans-stimulation",[9]; [test solute]i = 5 mM,138 ± 4.2 % PfCRT3D7 control
same,"Uptake of [3H]CQ (% PfCRT3D7 control), trans-stimulation",[9]; [12],163 ± 7.4 % PfCRT3D7 control
same,"PfCRT-mediated [3H]CQ transport, trans-stimulation (% PfCRT3D7 control)",[9]; [14],130 ± 3.2 % PfCRT3D7 control
same,"PfCRT-mediated [3H]CQ transport, trans-stimulation (% PfCRT3D7 control)",[9]; [15],157 ± 4.4 % PfCRT3D7 control
same,"Uptake of [3H]CQ (% PfNT1 control), trans-stimulation",[10]; [test solute]i = 5 mM,99 ± 4.2 % PfNT1 control
same,"Uptake of [3H]CQ (% PfNT1 control), trans-stimulation",[10]; [12],100 ± 2.9 % PfNT1 control
same,"Uptake of [3H]CQ (% PfCRTEcu1110 control), trans-stimulation",[11]; [test solute]i = 5 mM,120 ± 1.1 % PfCRTEcu1110 control
same,"Uptake of [3H]CQ (% PfCRTEcu1110 control), trans-stimulation",[11]; [12],135 ± 1.4 % PfCRTEcu1110 control
same,"PfCRT-mediated [3H]CQ transport, trans-stimulation (% PfCRTEcu1110 control)",[11]; [14],118 ± 0.3 % PfCRTEcu1110 control
same,"PfCRT-mediated [3H]CQ transport, trans-stimulation (% PfCRTEcu1110 control)",[11]; [15],130 ± 3.2 % PfCRTEcu1110 control
same,"[3H]CQ transport (% PfCRTDd2 control), trans-stimulation, PfCRTEcu1110",[11]; [13],36 ± 1.3 % PfCRTEcu1110 control
same,"[3H]CQ transport (% PfCRTDd2 control), trans-stimulation, PfCRTEcu1110",[11]; [12],39 ± 1.7 % PfCRTEcu1110 control
